Results published in US20130102631A1, “NOVEL MICROBIOCIDAL DIOXIME ETHER DERIVATIVES” (SYNGENTA CROP PROTECTION LLC, priority 2010, published 2013).

How the values were obtained:
[1] = tested on: Glomerella lagenarium; assay: Glomerella lagenarium (Colletotrichum lagenarium) / liquid culture (anthracnose); assay type: cell-based; conditions: Colletotrichum orbiculare; at ≦200 ppm, liquid culture PDB, inhibition of growth photometrically 3-4 days after application; read-out: control of Glomerella lagenarium
Method: Glomerella lagenarium (Colletotfichum lagenarium)/Liquid Culture (Anthracnose): Conidia of the fungus from cryogenic storage were directly mixed into nutrient broth (PDB potato dextrose broth). After placing a DMSO solution of test compound into a 96-well microtiter, the nutrient broth containing the fungal spores was added. The test plates were incubated at 24° C. and the inhibition of growth is measured photometrically 3-4 days after application. […]-2.509; 5.561; 2.561; E/E-2.208; P.57; 2.513; 2.559; 2.556; 2.555; 2.374; 2.552; 2.548; 2.544; 2.541; 2.540; 2.539; 2.537; 2.536; 2.533; 2.531; 2.530; 2.528; 2.526; 2.519; 2.510; 2.516; 2.514; E/E-5.167; E/E-3.002; 2.512; 2.514; Z/E-2.474

[2] = tested on: Mycosphaerella arachidis (Cercospora arachidicola); assay: Mycosphaerella arachidis (Cercospora arachidicola) / liquid culture (early leaf spot); assay type: cell-based; conditions: at ≦200 ppm, liquid culture PDB, inhibition of growth photometrically 4-5 days after application, read-out: control of Mycosphaerella arachidis
Method: Mycosphaerella arachidis (Cercospora arachidicola)/Liquid Culture (Early Leaf Spot): Conidia of the fungus from cryogenic storage were directly mixed into nutrient broth (PDB potato dextrose broth). After placing a DMSO solution of test compound into a 96-well microtiter plate, the nutrient broth containing the fungal spores was added. The test plates are incubated at 24° C. and the inhibition of growth was determined photometrically 4-5 days after application. […]-2.509; 5.561; 2.561; P.57; 2.513; 2.559; 2.558; 2.557; 2.556; 2.555; 2.374; 2.553; 2.552; 2.551 (fraction B); 2.551 (fraction A); 2.544; 2.541; 2.539; 2.537; 2.536; 2.533; 2.532; 2.531; 2.530; 2.528; 2.526; 2.525 (fraction B); 2.525 (fraction A); 2.524; 2.520; 2.519; 2.510; 2.518; 2.517; 2.516; 2.514; […].002; 2.512; 2.511; 2.514

[3] = tested on: Mycosphaerella graminicola (Septoria tritici); assay: Mycosphaerella graminicola (Septoria tritici) / liquid culture (Septoria blotch); assay type: cell-based; conditions: Zymoseptoria tritici; at ≦200 ppm, liquid culture PDB, inhibition of growth photometrically 4-5 days after application; read-out: control of Mycosphaerella graminicola
[4] = tested on: Blumeria graminis f. sp. tritici (Erysiphe graminis f. sp. tritici); assay: Blumeria graminis f. sp. tritici / wheat / leaf disc preventative (powdery mildew on wheat); assay type: in vivo; conditions: foliar, wheat leaf segments cv. Kanzler, inoculated 1 day after application, assessed 6-8 days after application
Method: Blumeria graminis f. sp. tritici (Erysiphe graminis f. sp. tritici)/Wheat/Leaf Disc Preventative (Powdery Mildew on Wheat):
Wheat leaf segments cv. Kanzler were placed on agar in a 24-well plate and sprayed with the formulated test compound diluted in water at an application rate of 200 ppm. The leaf disks were inoculated by shaking powdery mildew infected plants above the test plates 1 day after application. The inoculated leaf disks were incubated at 20° C. and 60% relative humidity under a light regime of 24 h darkness followed by 12 h/12 h (dark/light) in a climate chamber and the activity of a compound was assessed as percent disease control compared to untreated when an appropriate level of disease damage appears on untreated check leaf segments (6-8 days after application). The following compounds gave at least 80% control of Blumeria graminis: E/E-2.168, E/E-2.474, E/E-2.002; 5.561; 2.561; E/E-2.208; 2.513; 2.559; 2.557; 2.556; 2.555; 2.374; 2.552; 2.537; 2.533; 2.530; 2.528; 2.526; 2.519; 2.510; 2.516; 2.514; E/E-5.167; E/E-3.002; 2.512; 2.511

[5] = tested on: Pyrenophora teres; assay: Pyrenophora teres / barley / leaf disc preventative (net blotch); assay type: in vivo; conditions: foliar, barley leaf segments cv Hasso, inoculated two days after application, assessed 5-7 days after application
Method: Pyrenophora teres/Barley/Leaf Disc Preventative (Net Blotch): Barley leaf segments cv Hasso are placed on agar in a 24-well plate and sprayed with formulated test compound diluted in water at an application rate of 200 ppm. The leaf segments are inoculated with a spore suspension of the fungus two days after application of the test solution. The inoculated leaf segments are incubated at 20° C. and 65% relative humidity under a light regime of 12/12 h (light/dark) in a climate cabinet and the activity of a compound is assessed as disease control compared to untreated when an appropriate level of disease damage appears in untreated check leaf segments (5-7 days after application). […]-2.507; 5.561; 2.561; E/E-2.208; P.57; 2.513; 2.559; 2.558; 2.556; 2.555; 2.374; 2.552; 2.544; 2.537; 2.533; 2.530; 2.528; 2.519; 2.510; 2.516; 2.514; E/E-5.167; E/E-3.002; 2.512

[6] = tested on: Gaeumannomyces graminis; assay: Gaeumannomyces graminis / liquid culture (take-all of cereals); assay type: cell-based; conditions: at ≦200 ppm, liquid culture PDB, inhibition of growth photometrically 4-5 days after application, read-out: control of Gaeumannomyces graminis
Method: Gaeumannomyces graminis/Liquid Culture (Take-All of Cereals): Mycelial fragments of the fungus from cryogenic storage were directly mixed into nutrient broth (PDB potato dextrose broth). After placing a DMSO solution of test compound into a 96-well microtiter plate, the nutrient broth containing the fungal spores is added. The test plates were incubated at 24° C. and the inhibition of growth was determined photometrically 4-5 days after application. […]-2.509; 5.561; 2.561; P.57; 2.513; 2.559; 2.558; 2.557; 2.556; 2.555; 2.374; 2.553; 2.552; 2.551 (fraction B); 2.551 (fraction A); 2.539; 2.533; 2.528; 2.526; 2.525 (fraction B); 2.525 (fraction A); 2.524; 2.523; 2.521; 2.520; 2.519; 2.510; 2.518; 2.516; 2.514; E/E-5.167; E/E-3.002; 2.512; E/E-2.508

[7] = tested on: Puccinia recondita f. sp. tritici; assay: Puccinia recondita f. sp. tritici / wheat / leaf disc curative (brown rust); assay type: in vivo; conditions: foliar, wheat leaf segments cv Kanzler, 200 ppm applied 1 day after inoculation, assessed 6-8 days after application
Method: Puccinia recondita f. sp. tritici/Wheat/Leaf Disc Curative (Brown Rust): Wheat leaf segments cv Kanzler were placed on agar in 24-well plates. The leaf segments were inoculated with a spore suspension of the fungus. The plates were stored in darkness at 19° C. and 75% relative humidity. The formulated test compound diluted in water was applied at an application rate of 200 ppm 1 day after inoculation. […]-2.508; 5.561; 2.561; E/E-2.208; 2.513; 2.559; 2.556; 2.555; 2.374; 2.552; 2.537; 2.519; 2.516; 2.514; […].002; 2.512; E/E-2.507

[8] = tested on: Puccinia recondita f. sp. tritici; assay: Puccinia recondita f. sp. tritici / wheat / leaf disc preventative (brown rust); assay type: in vivo; conditions: foliar, wheat leaf segments cv Kanzler, inoculated 1 day after application, assessed 7-9 days after application
Method: Puccinia recondita f. sp. Tritici/Wheat/Leaf Disc Preventative (Brown Rust): Wheat leaf segments cultivated variety (cv) Kanzler were placed on agar in 24-well plates and sprayed with formulated test compound diluted in water at an application rate of 200 ppm. The leaf disks were inoculated with a spore suspension of the fungus 1 day after application. The inoculated leaf segments were incubated at 19° C. and 75% relative humidity under a light regime of 12/12 h (light/dark) in a climate cabinet and the activity of a compound was assessed as percent disease control compared to untreated when an appropriate level of disease damage appears in untreated check leaf segments (7-9 days after application). […]-2.508; 5.561; 2.561; 2.513; 2.559; 2.556; 2.555; 2.374; 2.544; 2.537; 2.530; 2.525 (fraction B); 2.519; 2.516; 2.514; E/E-5.167; E/E-3.002; 2.512; E/E-2.507

[9] = tested on: Phaeosphaeria nodorum (Septoria nodorum); assay: Phaeosphaeria nodorum (Septoria nodorum) / wheat / leaf disc preventative (glume blotch); assay type: in vivo; conditions: Parastagonospora nodorum, foliar, wheat leaf segments cv Kanzler, inoculated 2 days after application, assessed 5-7 days after application
Method: Phaeosphaeria nodorum (Septoria nodorum)/Wheat/Leaf Disc Preventative (Glume Blotch): Wheat leaf segments cv Kanzler were placed on agar in a 24-well plate and sprayed with formulated test compound diluted in water at an application rate of 200 ppm. The leaf disks are inoculated with a spore suspension of the fungus 2 days after application. The inoculated test leaf disks are incubated at 20° C. and 75% relative humidity under a light regime of 12/12 h (light/dark) in a climate cabinet and the activity of a compound is assessed as percent disease control compared to untreated when an appropriate level of disease damage appears in untreated check leaf disks (5-7 days after application). […]-2.508; 5.561; 2.561; E/E-2.208; P.57; 2.513; 2.559; 2.558; 2.557; 2.556; 2.555; 2.374; 2.544; 2.541; 2.539; 2.537; 2.536; 2.535; 2.533; 2.530; 2.526; 2.519; 2.510; 2.516; 2.514; E/E-5.167; E/E-3.002; 2.512

[10] = tested on: Monographella nivalis (Microdochium nivale); assay: Monographella nivalis (Microdochium nivale) / liquid culture (foot rot cereals); assay type: cell-based; conditions: at ≦200 ppm, liquid culture PDB, inhibition of growth photometrically 4-5 days after application, read-out: control of Monographella nivalis
Method: Monographella nivalis (Microdochium nivale)/Liquid Culture (Foot Rot Cereals): Conidia of the fungus from cryogenic storage were directly mixed into nutrient broth (PDB potato dextrose broth). After placing a DMSO solution of test compound into a 96-well microtiter plate, the nutrient broth containing the fungal spores was added. The test plates were incubated at 24° C. and the inhibition of growth was determined photometrically 4-5 days after application. […].57; 2.513; 2.559; 2.558; 2.556; 2.555; 2.374; 2.553; 2.551 (fraction B); 2.551 (fraction A); 2.548; 2.544; 2.542; 2.541; 2.539; 2.536; 2.535; 2.533; 2.530; 2.528; 2.526; 2.525 (fraction B); 2.525 (fraction A); 2.524; 2.519; 2.518; 2.516; 2.514; E/E-5.167; 2.512; 2.514

Cc1ccc2c(n1)/C(=N/OCC(C)(C)CO/N=C/c1ncc(Cl)cc1F)CCC2 [Compound 2.552]
≥ 80%: inhibition of growth at up to 200 µg/mL [1] | inhibition of growth at up to 200 µg/mL [2] | inhibition of growth at up to 200 µg/mL [3] | pest or weed control at 200 ppm [4] | pest or weed control at 200 ppm [5] | inhibition of growth at up to 200 µg/mL [6] | pest or weed control at 200 ppm [7]

C/C(=N\OCC(C)(C)CO/N=C1\CCCc2ccc(C)nc21)c1cccc(-c2ccccc2Cl)n1 [Compound 2.544]
≥ 80%: inhibition of growth at up to 200 µg/mL [1] | pest or weed control at 200 ppm [8] | inhibition of growth at up to 200 µg/mL [2] | inhibition of growth at up to 200 µg/mL [3] | pest or weed control at 200 ppm [5] | pest or weed control at 200 ppm [9] | inhibition of growth at up to 200 µg/mL [10]

Cc1ccc2c(n1)/C(=N/OCC(C)(C)CO/N=C(\c1ccncc1)c1ccccn1)CCC2 [Compound 2.537]
≥ 80%: inhibition of growth at up to 200 µg/mL [1] | pest or weed control at 200 ppm [8] | inhibition of growth at up to 200 µg/mL [2] | inhibition of growth at up to 200 µg/mL [3] | pest or weed control at 200 ppm [4] | pest or weed control at 200 ppm [5] | pest or weed control at 200 ppm [9] | pest or weed control at 200 ppm [7]

C/C(=N\OCC(C)(O)CO/N=C1\CCCc2ccc(C)nc21)c1cccc(C)n1 (stereo not drawn) [E/E-14.002]
≥ 80%: inhibition of growth at up to 200 µg/mL [2] | pest or weed control at 200 ppm [7]

Cc1ccc2c(n1)/C(=N/OCC(C)(C)CO/N=C/c1cccc(CO)n1)CCC2 [Compound 2.528]
≥ 80%: inhibition of growth at up to 200 µg/mL [1] | inhibition of growth at up to 200 µg/mL [2] | inhibition of growth at up to 200 µg/mL [3] | pest or weed control at 200 ppm [4] | pest or weed control at 200 ppm [5] | inhibition of growth at up to 200 µg/mL [6] | inhibition of growth at up to 200 µg/mL [10]

Cc1ccc2c(n1)/C(=N/OCC(C)(C)CO/N=C(\c1ccccc1)c1ccccn1)CCC2 [Compound 2.510]
≥ 80%: inhibition of growth at up to 200 µg/mL [1] | inhibition of growth at up to 200 µg/mL [2] | inhibition of growth at up to 200 µg/mL [3] | pest or weed control at 200 ppm [4] | pest or weed control at 200 ppm [5] | inhibition of growth at up to 200 µg/mL [6] | pest or weed control at 200 ppm [9]

CC/C(=N/OCC(C)(C)CO/N=C1\CCCc2ccc(C)nc21)c1ncc(Cl)cc1F (single isomer, unassigned) [2.525 (fraction B)]
≥ 80%: pest or weed control at 200 ppm [8] | inhibition of growth at up to 200 µg/mL [2] | inhibition of growth at up to 200 µg/mL [3] | inhibition of growth at up to 200 µg/mL [6] | inhibition of growth at up to 200 µg/mL [10]

C/C(=N\OCC(C)(C)CO/N=C1\CCCc2c(C)cc(CF)nc21)c1cc(C)cc(C)n1 [E/E-2.208]
≥ 80%: inhibition of growth at up to 200 µg/mL [1] | pest or weed control at 200 ppm [4] | pest or weed control at 200 ppm [5] | pest or weed control at 200 ppm [9] | pest or weed control at 200 ppm [7]
